Laboratory results reported in US11033531B2, “Use of carbamate compound for preventing, alleviating, or treating tremors or tremor syndrome” (SK BIOPHARMACEUTICALS CO., LTD., priority 2016, dated 2021).
Marks after values point to notes of the source that are not given here.

Tested on: oxotremorine-induced tremor in rats
Test: Oxotremorine-induced tremor in rats
Assay type: in vivo, rat
Conditions: for Number of tremor behaviors: male SD rats, behaviors of at least 0.5 s in 2,048 s, mean±SEM
Source text: As a model for assessing the potential efficacy of therapeutic agents that can effectively treat essential tremor and other tremor syndromes, oxotremorine-induced tremor in rats was used [B Cox, D Potkonjak, Effects of drugs on tremor and increase in brain acetylcholine produced by oxotremorine in the rat, Br. J. Pharmac., 1970, 38, 171-180].
Male SD rats (CrjBgi:CD(SD)IGS) were purchased from Orient Bio, Inc. of Korea, and placed in a wire mesh cage under conditions of ambient temperature of 20 to 24° C., 55 to 75% relative humidity, an automatically controlled light-and-darkness cycle of 12 hours and free access to feed (purchased from Agri Brands Purina Korea, Inc.) and water. The rats were housed and maintained in accordance with the Laboratory Animal Care Standards of the Institutional Animal Care and Use Committee (IACUC). After about one week of stabilization, rats weighing 200 to 240 g were used in the experiment. The rats to be used for the experiment were fasted by removing the feed 16 hours before the experiment, and placed in a tremor measurement device (Tremor Monitor™, San Diego Instruments, CA) 3 hours before the experiment and adapted for 10 minutes.
The test compound was prepared by dissolving it in 30% polyethylene glycol 400 (purchased from Sigma) used as a vehicle 30-45 minutes before each experiment. The vehicle and the test compound (3, 10 and 30 mg/kg dose) were administered into the oral cavity, respectively, in a volume of 4 ml per 1 kg body weight of the rat. After 60 minutes, oxotremorine (oxotremorine sesquifumarate salt, 1-(4-[1-Pyrrolidinyl]-2-butynyl)-2-pyrrolidinone sesquifumarate; purchased from Sigma) dissolved in saline and prepared in a volume of […] or a saline were subcutaneously injected into the back of the rat neck in a volume of 2 ml per 1 kg body weight of the rat. Oxotremorine-administered rats were immediately placed in a tremor measurement device (filter frequency 12 Hz, band-width 6 Hz, filter number 2), and the number of tremor behaviors that progressed for at least 0.5 seconds in 2,048 seconds were automatically measured and recorded. The number of rats per group was 16.
All data were expressed as mean±SEM. The number of oxotremorine-induced tremor behaviors in the group treated with the test compound was expressed as % inhibition compared to the vehicle group. Statistical analysis of the number of tremor behaviors between groups was performed using one-way ANOVA (one-way analysis of variance) and Dunnett's multiple comparison test by using the GraphPad Prism ver. 4.0 program. The mean number of tremor behaviors in the vehicle/oxotremorine group was observed as 29.8±8.1, and the mean number of tremor behaviors in the vehicle/saline group was observed as 9.2±2.5.

## NC(=O)O[C@@H](Cn1ncnn1)c1ccccc1Cl [Test compound]
Rattus norvegicus, po, rats, inhibition of oxotremorine-induced tremor behaviors, read-out: Calculated Median Effective Dose (ED50)
  ED50: 1.67 mg/kg
Rattus norvegicus, po, 3 mg/kg p.o., rats, vs vehicle/oxotremorine group, corrected for vehicle/saline group, read-out: Inhibition rate compared to negative group
  inhibition at 3 mg/kg: 50.3%
Rattus norvegicus, po, 10 mg/kg p.o., rats, vs vehicle/oxotremorine group, corrected for vehicle/saline group, read-out: Inhibition rate compared to negative group
  inhibition at 10 mg/kg: 78.7%
Rattus norvegicus, po, 30 mg/kg p.o., rats, vs vehicle/oxotremorine group, corrected for vehicle/saline group, read-out: Inhibition rate compared to negative group
  inhibition at 30 mg/kg: 130%
3 mg/kg p.o. 60 min before oxotremorine s.c.
  Number of tremor behaviors: 19.4 ± 3.7
10 mg/kg p.o. 60 min before oxotremorine s.c.
  Number of tremor behaviors: 13.6 ± 0.1^2)
30 mg/kg p.o. 60 min before oxotremorine s.c.
  Number of tremor behaviors: 2.9 ± 0.5^1)
rats, 3, 10 and 30 mg/kg p.o.
  Pharmacological activity in the oxotremorine-induced tremor behavior model: significant pharmacological activity
